The test system of this data set is tobacco budworm (Heliothis virescens [Fabricius]). Nature of the data set: surface-treated diet test against tobacco budworm. The class given is in vivo. Conditions: 0.25 millimolar candidate insecticide on the surface of the diet, second instar larvae, five-day exposure; for Percent Mortality: compared to total number of insects infested; for Percent Growth Inhibition: inhibition of insect weight relative to untreated controls. The procedure: Candidate insecticides were evaluated for activity against the tobacco budworm (Heliothis virescens [Fabricius]) in a surface-treated diet test.
In this test one mL of molten (65-70° C.) wheat germ-based artificial diet was pipetted into each well of a four by six (24 well) multi-well plate (ID# 430345-15.5 mm dia.×17.6 mm deep; Corning Costar Corp., One Alewife Center, Cambridge, Mass. 02140). The diet was allowed to cool to ambient temperature before treatment with candidate insecticide.
For a determination of insecticidal activity, solutions of the candidate insecticides were prepared for testing using a Packard 204DT Multiprobe® Robotic System (Packard Instrument Company, 800 Research Parkway, Meriden, Conn. 06450), in which the robot first diluted a standard 50 millimolar DMSO solution of candidate insecticide with a 1:1 water/acetone solution (V/V) in a ratio of 1:7 stock solution to water/acetone. The robot subsequently pipetted 40 microliters of the so-prepared solution onto the surface of the diet in each of three wells in the 24 multi-well plate. The process was repeated with solutions of seven other candidate insecticides. Once treated, the contents of the multi-well plate were allowed to dry, leaving 0.25 millimoles of candidate insecticide on the surface of the diet, or a concentration of 0.25 millimolar. Appropriate untreated controls containing only DMSO on the diet surface were also included in this test.
For evaluations of the insecticidal activity of a candidate insecticide at varying rates of application, the test was established as described above using sub-multiples of the standard 50 millimolar DMSO solution of candidate insecticide. For example, the standard 50 millimolar solution was diluted by the robot with DMSO to give 5, 0.5, 0.05, 0.005, 0.0005 millimolar, or more dilute solutions of the candidate insecticide. In these evaluations there were six replicates of each rate of application placed on the surface of the diet in the 24 multi-well plate, for a total of four rates of application of candidate insecticide in each plate.
In each well of the test plate was placed one second instar tobacco budworm larvea, each weighing approximately five milligrams. After the larvae were placed in each well, the plate was sealed with clear polyfilm adhesive tape. The tape over each well was perforated to ensure an adequate air supply. The plates were then held in a growth chamber at 25° C. and 60% relative humidity for five days (light 14 hours/day).
After the five-day exposure period insecticidal activity for each rate of application of candidate insecticide was assessed as percent inhibition of insect weight relative to the weight of insects from untreated controls, and percent mortality when compared to the total number of insects infested.

Consider `O=c1n(CCCCOc2c(Cl)cc(OCC=C(Cl)Cl)cc2Cl)cnn1-c1ccc([N+](=O)[O-])cc1` [Compound 93], for which the “Percent Mortality” value is 100% and the “Percent Growth Inhibition” value is 100%.

As to `O=c1n(CCCCOc2cc(Cl)c(OCC=C(Cl)Cl)c(Cl)c2)nnn1-c1cccc(Cl)c1` [Compound 661], the “Percent Mortality” value is given as 100% and the “Percent Growth Inhibition” value is recorded as 100%.

As to `Cc1nn(-c2ccc(C(F)(F)F)cc2)c(=O)n1CCCCOc1c(Cl)cc(OCC=C(Cl)Cl)cc1Cl` [Compound 131], the “Percent Mortality” value was 100% and the “Percent Growth Inhibition” value is 100%.

Regarding `O=C1C(=O)N(c2ccc(Cl)cc2)C(=O)N1CCCCOc1c(Cl)cc(OCC=C(Cl)Cl)cc1Cl` [Compound 613], the “Percent Mortality” value stood at 100% and the “Percent Growth Inhibition” value was determined as 100%.

With `CC(C)(C)c1ccc(-n2nnn(CCCCOc3c(Cl)cc(OCC=C(Cl)Cl)cc3Cl)c2=O)cc1` [Compound 291], the “Percent Mortality” value is on record as 100% and the “Percent Growth Inhibition” value is given as 100%.

Regarding `O=c1n(CCCCOc2c(Cl)cc(OCC=C(Cl)Cl)cc2Cl)nnn1-c1ccc(OC(F)(F)F)cc1` [Compound 303], the “Percent Mortality” value is 100% and the “Percent Growth Inhibition” value turned out to be 100%.

Consider `O=c1n(CCCCOc2c(Cl)cc(OCC=C(Cl)Cl)cc2Cl)cnn1-c1ccccc1Cl` [Compound 92], for which the “Percent Mortality” value is 100% and the “Percent Growth Inhibition” value is 100%.

For the compound `O=c1cnn(-c2ccc(Cl)cc2)c(=O)n1CCCCOc1c(Cl)cc(OCC=C(Cl)Cl)cc1Cl` [Compound 651], the “Percent Mortality” value is listed as 100% and the “Percent Growth Inhibition” value worked out at 100%.

For the compound `Cc1nn(-c2ccccc2F)c(=O)n1CCCCOc1c(Cl)cc(OCC=C(Cl)Cl)cc1Cl` [Compound 114], the “Percent Mortality” value is 100% and the “Percent Growth Inhibition” value came out at 100%.

As to `O=c1n(CCCCOc2c(Cl)cc(OCC=C(Cl)Cl)cc2Cl)cnn1-c1ccc(Cl)cc1` [Compound 91], the “Percent Mortality” value came to 100% and the “Percent Growth Inhibition” value is 100%.

For the compound `CC(C)(C)c1ccc(-n2ncn(CCCCOc3c(Cl)cc(OCC=C(Cl)Cl)cc3Cl)c2=O)cc1` [Compound 83], the “Percent Mortality” value turned out to be 100% and the “Percent Growth Inhibition” value turned out to be 100%.

On to `O=c1n(CCCCOc2c(Cl)cc(OCC=C(Cl)Cl)cc2Cl)nnn1Cc1ccccc1` [Compound 512], for which the “Percent Mortality” value amounted to 100% and the “Percent Growth Inhibition” value is 100%.

Regarding `O=c1n(CCCCOc2c(Cl)cc(OCC=C(Cl)Cl)cc2Cl)cnn1-c1ccc(C(F)(F)F)cc1` [Compound 107, 4-{4-[4-(3,3-Dichloroprop-2-enyloxy)-2,6-dichlorophenoxy]butyl}-1-[4-(trifluoromethyl)-phenyl]-1,2,4-triazolin-5-one], the “Percent Mortality” value is 100% and the “Percent Growth Inhibition” value was determined as 100%.

Consider `O=c1n(Cc2ccc(C(F)(F)F)cc2)cnn1CCCCOc1c(Cl)cc(OCC=C(Cl)Cl)cc1Cl` [Compound 546], for which the “Percent Mortality” value worked out at 100% and the “Percent Growth Inhibition” value came to 100%.

Regarding `O=c1n(Cc2ccc(C(F)(F)F)cc2)cnn1CCOc1c(Cl)cc(OCC=C(Cl)Cl)cc1Cl` [Compound 548], the “Percent Mortality” value is reported as 100% and the “Percent Growth Inhibition” value is 100%.

Consider `O=c1n(CCCCOc2c(Cl)cc(OCC=C(Cl)Cl)cc2Cl)nnn1-c1ccc(Cl)cc1` [Compound 300], for which the “Percent Mortality” value is on record as 100% and the “Percent Growth Inhibition” value came to 100%.

For `O=c1cnn(-c2ccc(Cl)cc2Cl)c(=O)n1CCCCOc1c(Cl)cc(OCC=C(Cl)Cl)cc1Cl` [Compound 648], the “Percent Mortality” value was determined as 100% and the “Percent Growth Inhibition” value was 100%.

With `Cc1cc(C)cc(-n2ncn(CCCCOc3c(Cl)cc(OCC=C(Cl)Cl)cc3Cl)c2=O)c1` [Compound 100], the “Percent Mortality” value came out at 100% and the “Percent Growth Inhibition” value came out at 100%.

Regarding `O=c1n(CCCCOc2c(Cl)cc(OCC=C(Cl)Cl)cc2Cl)cnn1-c1cc(F)cc(F)c1` [Compound 87], the “Percent Mortality” value was 100% and the “Percent Growth Inhibition” value stood at 100%.

On to `O=c1n(CCOc2c(Cl)cc(OCC=C(Cl)Cl)cc2Cl)nnn1Cc1ccccc1Cl` [Compound 522], for which the “Percent Mortality” value came out at 50% and the “Percent Growth Inhibition” value was 100%.

With `Cc1nn(-c2ccc(Cl)cc2F)c(=O)n1CCCCOc1c(Cl)cc(OCC=C(Cl)Cl)cc1Cl` [Compound 123], the “Percent Mortality” value stood at 100% and the “Percent Growth Inhibition” value came to 100%.

As to `Cc1ccc(-n2ncn(CCCCOc3c(Cl)cc(OCC=C(Cl)Cl)cc3Cl)c2=O)cc1` [Compound 86], the “Percent Mortality” value was found to be 100% and the “Percent Growth Inhibition” value came out at 100%.

Consider `O=c1cnn(-c2ccccc2Cl)c(=O)n1CCCCOc1c(Cl)cc(OCC=C(Cl)Cl)cc1Cl` [Compound 652], for which the “Percent Mortality” value amounted to 100% and the “Percent Growth Inhibition” value was found to be 100%.

`O=c1n(CCCOc2c(Cl)cc(OCC=C(Cl)Cl)cc2Cl)nnn1-c1cccc(Cl)c1` [Compound 309]: the “Percent Mortality” value is recorded as 100% and the “Percent Growth Inhibition” value is 100%.

Consider `O=c1n(CCCCOc2c(Cl)cc(OCC=C(Cl)Cl)cc2Cl)nnn1Cc1ccc(Cl)cc1` [Compound 515], for which the “Percent Mortality” value stood at 100% and the “Percent Growth Inhibition” value worked out at 100%.

Turning to `O=c1n(CCOc2c(Cl)cc(OCC=C(Cl)Cl)cc2Cl)cnn1-c1ccc(C(F)(F)F)cc1` [Compound 105], the “Percent Mortality” value turned out to be 100% and the “Percent Growth Inhibition” value is given as 100%.

Turning to `Cc1nn(-c2ccc(Cl)cc2Cl)c(=O)n1CCCCOc1c(Cl)cc(OCC=C(Cl)Cl)cc1Cl` [Compound 118], the “Percent Mortality” value is recorded as 100% and the “Percent Growth Inhibition” value was found to be 100%.

For the origin of these results see patent US7713970B2, “Substituted cyclic urea derivatives” (FMC Corporation, priority 2004, dated 2010).
